Assay results from patent US8546366B2, “Method for inhibition of tumor cell growth using (22R)-5α-lanosta-8,24-dien-3β,15α,21-triol” (Mackay Memorial Hospital, priority 2011, dated 2013).

How the values were obtained:
caspase 3 and caspase 8 = assay: Caspase dependence of growth inhibition and caspase expression; type: cell-based
Text: Thus, the compound may induce apoptosis in a caspase-independent pathway.

human leukemic cell U937 [1] = assay: MTT cell survival assay, leukemic cells U937; type: cell-based
Procedure: Examples of the present invention adopted anti-tumor drugs screening model of National Cancer Institute (NCI) to examine inhibitory effect of the compound on cancer cells. The compound was added into culture medium containing leukemic cells U937 (a human monoblastoid leukemic cell line) to test for tumor cell survival. Cell survival rate is determined by well known MTT assay, and U937, a human myeloid leukemic cell line obtained from American Type Culture Collection (ATCC), is belonged to one of human acute leukemic cell lines and is classified as monoblasts during hematopoietic differentiation.
MTT assay is a commonly used method for analysis of percent of viable cells, wherein MTT (3-[4,5-dimethylthiazol-2-yl]2,5-diphenyltetrazolium bromide) is a yellow color dye that can be absorbed by living cells and be converted by mitochondria succinate tetrazolium reductase to water insoluble purple-blue formazan. Therefore, the amount of formazan formation can be used as an assessment tool to determine the survival rate of cells.
The human leukemia cell line U937 was cultivated in RPMI 1640 medium containing fetal calf serum for 24 hours and maintained in the exponential growth condition. The proliferating cells were treated with the compound in the concentration of 0 (the control group), 1.25, 2.5, 5 or 10 μg/ml at 37° C. under 5% CO2 for 24-72 hours, respectively. Then MTT was added in a concentration of 500 μg/ml into each wells in the dark and incubated for 4 hours, followed by the addition of 500 μl of isopropanol to stop the reaction. The plates were read on an ELISA reader at wavelength of 570 nm to determine the cell survival rates. The results were reported as the average±(plus/minus) SEM (Standard Error in the Mean). For statistical analysis, the t-test was used to compare the difference between each experiment result. p<0.05 was considered statistically significant.

[2] = tested on: human pancreatic cancer cell line BxPC-3; assay: MTT cell survival assay, pancreatic cancer cells; type: cell-based
Procedure: (§1) The test adopted the cell survival analysis (i.e., the MTT assay as described above). The purified compound was added into the culture media with human pancreatic cancer cell line BxPC-3 to test for tumor cell survival. This survival assay was carried out with the abovementioned MTT assay, wherein the pancreatic cancer cell line BxPc-3 was purchased from American Type Culture Collection (ATCC), the cell line originated from the epithelium of human pancreatic adenocarcinomas.
The human pancreatic cancer cell line BxPc-3 was cultivated in DMEM media containing 100 IU/ml penicillin (Invitrogen, Carlsbad, Calif.), 100 μg/ml streptomycin (Invitrogen, Carlsbad, Calif.), 2 mM glutamin (Invitrogen, Carlsbad, Calif.), and 10% fetal calf serum (Atlanta Biologicals, Norcross, Ga.). The proliferated cells were treated with the compound in the concentration of 0 (the control group), 5 and 10 μg/ml (the experimental group), respectively. The cells were incubated at 37° C. in a 5% CO2 incubator for 24-72 hours. 500 μg/ml of MTT was added into each well in the dark and incubated for 4 hours, followed by the addition of 500 μl of isopropanol to stop the reaction. The plates were read on an ELISA reader at wavelength of 570 nm to determine the cell survival rates. The results were reported as the average±(plus/minus) SEM (Standard Error in the Mean). […]

[3] = tested on: human esophageal cancer cell line CE-81T/VGH; assay: MTT cell survival assay, esophageal cancer cells; type: cell-based; conditions: 5 μg/ml, 72 hours
Procedure: The purified compound was added into the culture media with human esophageal cancer cell line CE-81T/VGH to test for tumor cell survival. This survival assay was carried out with the abovementioned MTT assay, wherein the CE-81T/VGH esophageal cancer cell line was obtained from Taipei Veteran General Hospital, the cell line originated from the epithelium of human esophageal cancer cells.
(§2) The human esophageal cancer cell line CE-81T/VGH was cultivated in DMEM media containing 100 IU/ml penicillin (Invitrogen, Carlsbad, Calif.), 100 μg/ml streptomycin (Invitrogen, Carlsbad, Calif.), 2 mM glutamin (Invitrogen, Carlsbad, Calif.), and 10% fetal calf serum (Atlanta Biologicals, Norcross, Ga.). The proliferated cells were treated with the compound in the concentration of 0 (the control group) and 5 μg/ml (the experimental group), respectively. The cells were incubated at 37° C. in a 5% CO2 incubator for 24-72 hours. 500 μg/ml of MTT was added into each well in the dark and incubated for 4 hours, followed by the addition of 500 μl of isopropanol to stop the reaction. The plates were read on an ELISA reader at wavelength of 570 nm to determine the survival rates.

[4] = tested on: human hepatoma cell line HA22T/VGH; assay: MTT cell survival assay, hepatoma cells; type: cell-based; conditions: 5 μg/ml, 72 hours
Procedure: The test adopted the cell survival analysis (i.e., the MTT assay as described above). The purified compound was added into the culture media with human hepatoma cell line HA22T/VGH to test for tumor cell survival. This survival assay was carried out with the abovementioned MTT assay, wherein the hepatoma cell line HA22T/VGH was obtained from Taipei Veteran General Hospital, the cell line originated from the human hepatoma.
as §2, with “hepatoma” for “esophageal cancer”, “HA22T/VGH” for “CE-81T/VGH”

[5] = tested on: human cervical adenocarcinoma cell line HeLa; assay: MTT cell survival assay, cervical adenocarcinoma cells; type: cell-based; conditions: 5 μg/ml, 72 hours
Procedure: as §1, with “cervical adenocarcinoma” for “pancreatic cancer”, “HeLa” for “BxPC-3”, “HeLa” for “BxPc-3”, “cervical adenocarcinoma.” for “pancreatic adenocarcinomas.”
as §2, with “cervical adenocarcinoma” for “esophageal cancer”, “HeLa” for “CE-81T/VGH”

[6] = tested on: human ovarian cancer cell line SKOV-3; assay: MTT cell survival assay, ovarian cancer cells; type: cell-based; conditions: 5 μg/ml, 72 hours
Procedure: The test adopted the cell survival analysis (i.e. the MTT assay as described above). The purified compound was added into the culture media of human ovarian cancer cell line SKOV-3 to test for tumor cell survival. This survival assay was carried out with the abovementioned MTT assay, wherein the ovarian cancer cell line SKOV-3 was purchased from American Type Culture Collection (ATCC), the cell line originated from the epithelium of human ovarian cancer.
as §2, with “ovarian” for “esophageal”, “SKOV-3” for “CE-81T/VGH”

[7] = tested on: human leukemic cell line U937; assay: Cell cycle analysis by flow cytometry; type: cell-based; conditions: 2.5 μg/ml, 48 hours
Procedure: Flow cytometer was used to analyze the effect of the compound on cell cycle of human leukemic cells.
The compound in concentration of 2.5 μg/ml was used to treat human leukemic cell line U937, and cells without addition of compound were served as the control group. The treated cells after 48 hours of treatment were fixed at 4° C. with 70% ethanol for 1 hour and stained for 30 minutes with propidium iodide solution (0.5 mg/ml of propidium iodide; 0.1 mg/ml of RNAse) contained in a CycleTEST PLUS DNA reagent kit (Becton Dickinson, Lincoln Park, N.J.). DNA content measurement on the collected 10^4 cells was performed on the FACS Calibur flow cytometer (Becton Dickinson), and the cell cycle changes were analyzed using a ModFit software (Becton Dickinson).

tumor cells = assay: DNA gel electrophoresis, inter-nucleosomal DNA cleavage; type: cell-based; conditions: 5 μg/ml; 24 hours; 1.5% agarose gel
Procedure: Lane 1, molecular marker; Lane 2, control group; Lane 3, experimental group (treated with 5 μg/ml of the compound for 24 hours).
In addition to the morphological changes described above, cells may show some biochemical changes during cell apoptosis, including chromatin condensation, formation of apoptotic body due to cell fragmentation, and inter-nucleosomal cleavage of DNA that leading to formation of DNA ladder in DNA electrophoresis. To confirm the relationship of inhibition activity between the compound and the stage of cell apoptosis, the experiment adopted DNA electrophoresis to examine inter-nucleosomal cleavage of DNA into DNA ladder at late stage of cell apoptosis.
Total DNAs were extracted and analyzed by 1.5% agarose gel electrophoresis in TBE buffer (5 mM TBE buffer containing 1 μM EDTA, pH 8.0). The gel was stained with ethidium bromide and visualized under UV.

human leukemic cell U937 [8] = assay: Mitochondria transmembrane potential, DiOC6(3) flow cytometry; type: cell-based; conditions: 5 μg/ml, 16 hours
Procedure: Human leukemic cell U937 was treated with the compound (5 μg/ml) for 16 hours. The same cells treated with anti-tumor agent camptothecin (4 μM) for 16 hours were used as positive control group, while untreated cells were used as control group. The cells were then washed with PBS solution, followed by addition of 40 nM 3,3′-dihexyloxacarbocyanine(DiOC6(3); Molecular Probes, Eugene, Oreg.) into culture medium at 37° C. in the dark and incubated for 15 minutes. The results were analyzed immediately using flow cytometry, wherein the excitation wavelength was set at 488 nm and emission wavelength set at 530 nm to detect fluorescence density and as representative of mitochondria transmembrane potential change.

[9] = tested on: human normal monocytes isolated from peripheral blood mononuclelar cells; assay: Viability of human normal monocytes; type: cell-based; conditions: for effect on normal monocytes: normal human peripheral blood monocytes
Procedure: FIG. 4 is a morphological assessment of human normal peripheral blood monocytes treated by the compound. Liu's stain method was used for morphological observation. (A) Control group and (B) Experimental group (treated with 5 μg/ml of the compound for 1 day).

[10] = tested on: U937, BxPC-3, CE-81T/VGH, HA22T/VGH and HeLa tumor cell lines; assay: MTT assay, summary over the inhibited tumor cell lines; type: cell-based, human; conditions: range over U937, BxPC-3, CE-81T/VGH

With `CC[C@@]1(O)C(=O)OCc2c1cc1n(c2=O)Cc2cc3ccccc3nc2-1` [camptothecin, reference compound] the “block of induced growth inhibition by caspase 3 and pan-caspase inhibitors” value (caspase 3 and caspase 8) was “could block”.
With `CC(C)=CCC[C@@H](CO)[C@H]1C[C@H](O)[C@@]2(C)C3=C(CC[C@]12C)[C@@]1(C)CC[C@H](O)C(C)(C)[C@@H]1CC3` [the compound, (22R)-5α-lanosta-8,24-dien-3β,15α,21-triol] the inhibitory rate (human leukemic cell U937 [1]; U937, 1.25, 2.5, 5 and 10 μg/ml, all groups, third day) was “more than 60%”, the inhibitory rate (human leukemic cell U937 [1]; U937, 5 and 10 μg/ml groups, third day) was “more than 95%” and the highest inhibitory rate (human leukemic cell U937 [1]; U937, highest rate, 5 and 10 μg/ml groups, third day) was 99.8%. The IC50 (human leukemic cell U937 [1]; U937 cells, MTT) was “about 2 μg/ml”, the inhibition rate ([2]; 5 μg/ml (summary)) was 49.1% and the highest inhibitory rate ([2]; 5 and 10 μg/ml groups, third day, highest rate) was 48.5%. The inhibitory rate [3] was 61.4%, the inhibitory rate [4] was 90.3% and the inhibitory rate [5] was 56.8%. The growth inhibition [6] was “could not inhibit the growth”, the cell cycle distribution [7] was “hypoploidy, G2/M phase arrest, and polyploidy” and the “genomic DNA fragmentation (DNA ladder)” value (tumor cells) was “induced the genomic DNA into oligonucleosomal fragmentations”. For the same compound, the “mitochondria transmembrane potential change” value (human leukemic cell U937 [8]) was “did not be exhibited significantly reduction of transmembrane potential”, the viability inhibition ([9]; human normal monocytes) was under 10% and the “effect on normal monocytes” value [9] was “without toxicity to normal monocytes”. For the same compound, the “effect on normal monocytes” value ([9]; listed as The compound) was “no effect” and the “inhibition rate on tumor cell lines” value [10] was 48.5˜99.8%.
